# According to the supplement of paper PMC10307832:
# Experiments:
# Experiment in all cases: relative viability (nuclei count vs DMSO), 5 days (fraction); higher = more cells survive
# A549 = tested on: A549
# How it was run: (§1)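 After 5 days of treatment, lung cancer cells in 1536-well plates were fixed and stained in a single step (final 0.05% Triton X-100, 1% formaldehyde, 1 ug/ml Hoechst) and their nuclei counted on 4× images. Treatment had been applied by pin tool the day after seeding as one drug alone or as a fixed anchor-drug dose with five library-drug doses (not always all listed) in √10 steps. Relative viability is the nuclei count of treated wells divided by that of vehicle wells, and values are medians of duplicate plates.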
# EBC-1 = tested on: EBC-1
# How it was run: as §1
# NCI-H1299 = tested on: NCI-H1299
# How it was run: as §1
# NCI-H1703 = tested on: NCI-H1703
# How it was run: as §1
# IA-LM = tested on: IA-LM
# How it was run: as §1
# Calu-6 = tested on: Calu-6
# How it was run: as §1
SMILES,relative viability (A549; first compound 0.08 µM),relative viability (A549; first compound 0.8 µM),relative viability (A549; first compound 2.53 µM),relative viability (A549; first compound 8 µM),relative viability (EBC-1; first compound 0.08 µM),relative viability (EBC-1; first compound 0.8 µM),relative viability (EBC-1; first compound 2.53 µM),relative viability (EBC-1; first compound 8 µM),relative viability (NCI-H1299; first compound 0.08 µM),relative viability (NCI-H1299; first compound 0.8 µM),relative viability (NCI-H1299; first compound 2.53 µM),relative viability (NCI-H1299; first compound 8 µM),relative viability (NCI-H1703; first compound 0.08 µM),relative viability (NCI-H1703; first compound 2.53 µM),relative viability (NCI-H1703; first compound 8 µM),relative viability (IA-LM; first compound 0.08 µM),relative viability (IA-LM; first compound 0.8 µM),relative viability (IA-LM; first compound 2.53 µM),relative viability (IA-LM; first compound 8 µM),relative viability (Calu-6; first compound 0.08 µM),relative viability (Calu-6; first compound 0.8 µM),relative viability (Calu-6; first compound 2.53 µM),relative viability (Calu-6; first compound 8 µM),relative viability (NCI-H1703; first compound 0.8 µM)
CCCCCCCCCCCC1=C(O)C(=O)C=C(O)C1=O [Embelin] + N=C(N)NC(=N)NCCc1ccccc1 [Phenformin] (partner 250 µM),0.204,0.167,0.185,0.0745,,,,,,,,,,,,,,,,,,,,
CCCCCCCCCCCC1=C(O)C(=O)C=C(O)C1=O [Embelin] + Nc1ncn([C@H]2C[C@H](O)[C@@H](CO)O2)c(=O)n1 [Decitabine] (partner 2 µM),0.303,0.252,0.326,0.277,,,,,,,,,,,,,,,,,,,,
CCCCCCCCCCCC1=C(O)C(=O)C=C(O)C1=O [Embelin] + C[C@]1(O)C[C@@H](c2nc(-c3ccc4ccc(-c5ccccc5)nc4c3)c3c(N)nccn32)C1 [Linsitinib] (partner 1 µM),0.546,0.717,0.582,0.456,0.946,1.01,0.998,0.751,0.93,1.04,1.06,0.938,0.983,0.634,0.599,0.425,0.799,0.536,0.241,0.993,1.1,0.981,0.959,
CCCCCCCCCCCC1=C(O)C(=O)C=C(O)C1=O [Embelin] + CC1(C)CCC(c2ccc(Cl)cc2)=C(CN2CCN(c3ccc(C(=O)NS(=O)(=O)c4ccc(N[C@H](CCN5CCOCC5)CSc5ccccc5)c(S(=O)(=O)C(F)(F)F)c4)cc3)CC2)C1 [Navitoclax] (partner 0.5 µM),1.21,1.35,1.21,1.3,0.439,0.426,0.425,0.404,1.09,1.1,1.09,1.02,1.29,1.06,1.06,1.03,0.87,0.92,0.305,0.837,1.01,0.904,0.831,1.26
CCCCCCCCCCCC1=C(O)C(=O)C=C(O)C1=O [Embelin] + CC(C)C[C@H](NC(=O)[C@H](Cc1ccccc1)NC(=O)c1cnccn1)B(O)O [Bortezomib] (partner 0.002 µM),,,,,0.485,0.678,0.565,0.545,1.06,1.05,1.07,1.03,0.26,0.361,0.236,0.769,0.904,0.913,0.381,1.1,1.03,0.966,1.15,0.549
CCCCCCCCCCCC1=C(O)C(=O)C=C(O)C1=O [Embelin] + CS(=O)(=O)N1CCN(Cc2cc3nc(-c4cccc5[nH]ncc45)nc(N4CCOCC4)c3s2)CC1 [Pictilisib] (partner 1 µM),0.554,0.596,0.53,0.527,0.446,0.362,0.446,0.336,0.873,0.832,0.784,0.887,0.232,0.241,0.232,0.367,0.326,0.383,0.249,0.949,1.12,1.1,0.891,0.315
CCCCCCCCCCCC1=C(O)C(=O)C=C(O)C1=O [Embelin] + Cc1nc(NC(=O)N2CCC[C@H]2C(N)=O)sc1-c1ccnc(C(C)(C)C(F)(F)F)c1 [Alpelisib] (partner 2 µM),0.901,0.794,0.837,0.728,0.93,1,0.914,0.732,1.08,1.07,1.07,1.11,0.428,0.309,0.238,0.778,0.753,0.839,0.191,0.983,0.935,0.978,0.893,0.436
CCCCCCCCCCCC1=C(O)C(=O)C=C(O)C1=O [Embelin] + NC(=O)Nc1cc(-c2cccc(F)c2)sc1C(=O)N[C@H]1CCCNC1 [AZD7762] (partner 0.2 µM),,,,,,,,,,,,,0.132,0.131,0.143,,,,,,,,,0.166
CCCCCCCCCCCC1=C(O)C(=O)C=C(O)C1=O [Embelin] + COc1cc2c(Oc3ccc(NC(=O)C4(C(=O)Nc5ccc(F)cc5)CC4)cc3F)ccnc2cc1OCCCN1CCOCC1 [Foretinib] (partner 0.25 µM),0.906,1.05,1.09,1.04,0.0948,0.124,0.102,0.103,1.08,1.11,1.14,1.13,0.413,0.392,0.314,1.05,1.17,1.16,1.16,0.86,1.01,0.883,1.03,0.404
CCCCCCCCCCCC1=C(O)C(=O)C=C(O)C1=O [Embelin] + C[C@@H](Oc1cc(-c2cnn(C3CCNCC3)c2)cnc1N)c1c(Cl)ccc(F)c1Cl [Crizotinib] (partner 1 µM),0.834,0.81,0.987,0.915,0.205,0.229,0.191,0.19,0.954,1.02,0.963,0.94,0.8,0.806,0.975,0.718,0.85,0.729,0.743,0.738,0.854,0.822,0.692,1.17
CCCCCCCCCCCC1=C(O)C(=O)C=C(O)C1=O [Embelin] + O=C(CCCCCCC(=O)Nc1ccccc1)NO [Vorinostat] (partner 1 µM),,,,,,,,,,,,,,,,0.963,1.03,1.2,0.937,,,,,
CCCCCCCCCCCC1=C(O)C(=O)C=C(O)C1=O [Embelin] + O=C(c1cc(Cc2n[nH]c(=O)c3ccccc23)ccc1F)N1CCN(C(=O)C2CC2)CC1 [Olaparib] (partner 8 µM),0.32,0.187,0.424,0.366,0.699,0.828,0.703,0.684,0.987,1.01,0.994,0.987,0.457,0.388,0.286,0.899,0.894,0.847,0.616,0.589,0.682,0.573,0.655,0.442
CCCCCCCCCCCC1=C(O)C(=O)C=C(O)C1=O [Embelin] + CS(=O)(=O)CCNCc1ccc(-c2ccc3ncnc(Nc4ccc(OCc5cccc(F)c5)c(Cl)c4)c3c2)o1 [Lapatinib] (partner 2 µM),0.923,1.12,1.12,1.1,0.202,0.247,0.218,0.217,0.943,0.971,0.991,0.967,1.2,1.02,1.23,0.769,0.894,0.789,0.645,1.03,1.11,1.08,1.14,1.6
